Laboratory results taken from patent publication US11485762B2, “Compositions and methods for inhibition of L-plastin activity in osteoclasts to reduce bone loss” (University of Maryland, Baltimore, priority 2017, dated 2022).
Entries after “also recorded” stand apart in the source; their conditions may differ.

Experiments:
osteoclasts = experiment: Resorption pit formation assay on dentine slices; format: cell-based, mouse; conditions: for resorption of dentine matrix: sNT-LPL peptides, 12-16 hours
Protocol: Osteoclasts transduced with TAT-LPL peptides of interest for 30 minutes, were re-plated on dentine slices for 10-12 hours in the presence of TAT-fused peptides of interest and TNF-α. Some cultures were treated with a neutralizing antibody to TNFR-1. Resorption assay was performed as described previously (Chellaiah et al., 2000, J. Cell Biol., 148: 665-678; Chellaiah at al., 2000, J. Biol. Chem., 275: 11993-12002). Resorbed area were also scanned in confocal microscopy. Images were stored in TIF format and processed by Adobe Photoshop (Adobe Systems Inc.) (Chellaiah et al., 2000, J. Cell Biol, 148: 665-678). The resorbed pit areas were quantified and data were compiled from four slices per treatment and per experiment. The resorbed pit areas (20-25 pits/slice) were quantified and data were compiled from four slices per treatment. […] The area of the pit was determined from the free-hand traced perimeter using the LSM software (Chellaiah et al., 2000, J. Cell Biol., 148: 665-678). As per Cosmo Bio recommendations, the results of one experiment was compiled for the presentation.
Resorption was evaluated using dentine slices as described previously (Chellaiah et al., 2000, J. Biol. Chem., 275: 11993-12002). After transduction for 30 minutes, osteoclasts were re-plated on dentine slices for 12-16 hours to detect resorption lacuna in the presence of respective LPL peptide and TNF-α. Each treatment was done in quadruplicates Subsequently, dentine slices were stained with Mayer's acid hematoxylin (Sigma) for 6 minutes followed by washing several times with water. Excess stain in the resorbed area and stained cell debris were removed with a cotton swab. The pits were imaged under an X40 objective in a Zeiss inverted phase contrast microscope fitted with a CCD camera (Chellaiah et al., 2003, J Biol Chem 278: 29086-29097; Chellaiah et al., 2003, Mol Biol Cell, 14: 173-189). Images were stored in TIF format and processed by Adobe Photoshop (Adobe Systems Inc.).

[1] = tested on: osteoclasts derived from RAW cells; experiment: Podosome organization and migration in osteoclasts derived from RAW cells; format: cell-based; conditions: compared with P5
Text: C57/BL6 mice were used for osteoclast preparation as described previously (Chellaiah et al., 2000, J. Cell Biol., 148: 665.678; Chellaiah et al., 2007, J. Biol. Chem., 282: 10104-10116). Osteoclasts were generated in vitro using mouse bone marrow (BM) cells as described (Chellaiah et al., 2000, J. Cell Biol., 148: 665-678; Chellaiah et al., 2007, J. Biol. Chem., 282: 10104.10116). Osteoclasts differentiated from RAW 264.7 cells were also used to corroborate a few of the observations made with osteoclasts derived from mouse BM cells. Osteoclasts from RAW 264.7 cells were generated as described previously (Gupta et al., 2003, J Bone Miner Res 18: 669-685). Conditions were established that offer >90% population of mature multinucleated osteoclasts from both mouse bone marrow and RAW cells. […]
Cell migration (phagokinesis and transwell migration) assays were done as described previously (Chellaiah et al., 2000, J. Cell Biol., 148: 665-678). […] Migrated cells at the bottom of the wells were counted in 3-4 independent fields/transwell filter. […] In phagokinesis assay, cell motility was assessed by measuring the areas free of gold particles. By using a grided reticule (Boyce Scientific. Inc.) in the eyepiece of a Nikon microscope, areas free of gold particles were measured using a 10× objective. […]

endogenous LPL = experiment: Phosphorylation of endogenous LPL in osteoclasts derived from RAW cells; format: cell-based; conditions: bone particles and TNF-α
Text: C57/BL6 mice were used for osteoclast preparation as described previously (Chellaiah et al., 2000, J. Cell Biol., 148: 665.678; Chellaiah et al., 2007, J. Biol. Chem., 282: 10104-10116). Osteoclasts were generated in vitro using mouse bone marrow (BM) cells as described (Chellaiah et al., 2000, J. Cell Biol., 148: 665-678; Chellaiah et al., 2007, J. Biol. Chem., 282: 10104.10116). Osteoclasts differentiated from RAW 264.7 cells were also used to corroborate a few of the observations made with osteoclasts derived from mouse BM cells. Osteoclasts from RAW 264.7 cells were generated as described previously (Gupta et al., 2003, J Bone Miner Res 18: 669-685). Conditions were established that offer >90% population of mature multinucleated osteoclasts from both mouse bone marrow and RAW cells.
After flushing the marrow cells for osteoclast differentiation, long mouse bones (free of cells inside and muscles outside) were washed extensively with PBS and kept in ethanol until use. Long bones were air-dried in the hood and homogenized by a mini blender. Bone particles were sieved, and bone particles 60-80 μm in size were used for experiments. The multinucleated osteoclasts were seen from day four onward from mouse BM or RAW cells. At this stage, osteoclasts were added with sterile native bone particles (100 μg/ml medium) for 3-4 hours or 12-14 hours in the presence of TNF-α (20 ng/ml). […]

With “MARGSVSDEE [Peptide P1, TAT-fused small molecular weight (10aa) amino-terminal LPL peptide, unsubstituted (S5S7)]” the “resorption of dentine matrix” value (osteoclasts) was “Reduced resorption of dentine”, the migration of osteoclasts [1] was “no effect” and the “pattern of podosome organization” value [1] was “no effect”. For the same molecule, the “phosphorylation of endogenous (cellular) LPL” value (endogenous LPL) was “significant decrease; also recorded: reduced”.

With “MARGAVADEE [Peptide P2, TAT-fused sNT-LPL peptide, Ser-5 and Ser-7 substituted to Alanine (A5A7)]” the “resorption of dentine matrix” value (osteoclasts) was “no inhibitory effect”.

With “SRSGMVEEAD [Peptide P5, TAT-fused scrambled sNT-LPL peptide, control, reference compound]” the “resorption of dentine matrix” value (osteoclasts) was “no inhibitory effect”.

B1: FL-LPL: HA-TAT fused full-length L-plastin protein (70-75 kDa), purified from bacterial expression vector pTAT-HA (protein, UniProt P13796 1-627, looked up)
chain: MARGSVSDEEMMELREAFAKVDTDGNGYISFNELNDLFKAACLPLPGYRVREITENLMATGDLDQDGRISFDEFIKIFHGLKSTDVAKTFRKAINKKEGICAIGGTSEQSSVGTQHSYSEEEKYAFVNWINKALENDPDCRHVIPMNPNTNDLFNAVGDGIVLCKMINLSVPDTIDERTINKKKLTPFTIQENLNLALNSASAIGCHVVNIGAEDLKEGKPYLVLGLLWQVIKIGLFADIELSRNEALIALLREGESLEDLMKLSPEELLLRWANYHLENAGCNKIGNFSTDIKDSKAYYHLLEQVAPKGDEEGVPAVVIDMSGLREKDDIQRAECMLQQAERLGCRQFVTATDVVRGNPKLNLAFIANLFNRYPALHKPENQDIDWGALEGETREERTFRNWMNSLGVNPRVNHLYSDLSDALVIFQLYEKIKVPVDWNRVNKPPYPKLGGNMKKLENCNYAVELGKNQAKFSLVGIGGQDLNEGNRTLTLALIWQLMRRYTLNILEEIGGGQKVNDDIIVNWVNETLREAKKSSSISSFKDPKISTSLPVLDLIDAIQPGSINYDLLKTENLNDDEKLNNAKYAISMARKIGARVYALPEDLVEVNPKMVMTVFACLMGKGMKRV
modifications: full-length HA-TAT tag
notes: HA-TAT fused full-length L-plastin protein (70-75 kDa), purified from bacterial expression vector pTAT-HA
For B1, the “resorption (resorption pits)” value (osteoclasts; dentine 10-12 hours, TNF-α) was “increase in the number and size (area) of resorption pits”.
